System: 292921-168-R-J2-PDC KRAS tumor spheroid viability
Experiment: Anticancer human tumor 292921-168-R-J2-PDC patient-derived pancreatic carcinoma cell line growth inhibition [KRAS2]
Settings: spheroids with HUVEC and MSC; for IC50: curve of first compound; for viability, T/C: stronger effect = lower value
Summary of the method: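 Combination screen of spheroid viability in tumor-cell co-cultures with endothelial (HUVEC) and mesenchymal stem cell stroma. Each agent was tested in half-log dilutions, topping at clinical Cmax or at 10 microM without a known Cmax.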

[1] = second compound 0.0316 µM, first compound 0.01 µM
[2] = second compound 0.0316 µM, first compound 0.0316 µM
[3] = second compound 0.1 µM, first compound 0.01 µM
[4] = second compound 0.1 µM, first compound 0.0316 µM
[5] = second compound 0.1 µM, first compound 0.1 µM
[6] = second compound 0.1 µM, first compound 0.316 µM
[7] = second compound 0.1 µM, first compound 1 µM
[8] = second compound 0.1 µM, first compound 3.16 µM
[9] = second compound 0.316 µM, first compound 0.01 µM
[10] = second compound 0.316 µM, first compound 0.0316 µM
[11] = second compound 0.316 µM, first compound 0.1 µM
[12] = second compound 0.316 µM, first compound 0.316 µM
[13] = second compound 0.316 µM, first compound 1 µM
[14] = second compound 0.316 µM, first compound 3.16 µM
[15] = second compound 1 µM, first compound 0.01 µM
[16] = second compound 1 µM, first compound 0.0316 µM
[17] = second compound 1 µM, first compound 0.1 µM
[18] = second compound 1 µM, first compound 0.316 µM
[19] = second compound 1 µM, first compound 1 µM
[20] = second compound 1 µM, first compound 3.16 µM
[21] = second compound 3.16 µM, first compound 0.01 µM
[22] = second compound 3.16 µM, first compound 0.0316 µM
[23] = second compound 3.16 µM, first compound 0.1 µM
[24] = second compound 3.16 µM, first compound 0.316 µM
[25] = second compound 3.16 µM, first compound 1 µM
[26] = second compound 3.16 µM, first compound 3.16 µM
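Also: drug exposure lasted seven days after spheroids formed for three days.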
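For viability, T/C in this document: percent of DMSO vehicle control viability which is 100%.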

Compound: CC1COCCN1c1cc(-c2ccnn2C)c2ccnc(-c3ccn[nH]3)c2n1 (stereo not given) + C=CC(=O)N1CCN(c2nc(OCC3CCCN3C)nc3c2CCN(c2cccc4cccc(C)c24)C3)CC1CC#N
- IC50 (second compound 0.0316 µM): < 10 nM
- IC50 (second compound 0.1 µM): < 10 nM
- IC50 (second compound 0.316 µM): < 10 nM
- IC50 (second compound 1 µM): < 10 nM
- IC50 (second compound 3.16 µM): < 10 nM
- viability, T/C [1]: 38.6%
- viability, T/C [2]: 16.4%
- viability, T/C (second compound 0.0316 µM, first compound 0.1 µM): 11.5%
- viability, T/C (second compound 0.0316 µM, first compound 0.316 µM): 10%
- viability, T/C (second compound 0.0316 µM, first compound 1 µM): 11.9%
- viability, T/C (second compound 0.0316 µM, first compound 3.16 µM): 12.6%
- viability, T/C [3]: 33.6%
- viability, T/C [4]: 14%
- viability, T/C [5]: 9.02%
- viability, T/C [6]: 9.07%
- viability, T/C [7]: 11%
- viability, T/C [8]: 11.7%
- viability, T/C [9]: 22.6%
- viability, T/C [10]: 11%
- viability, T/C [11]: 7.47%
- viability, T/C [12]: 8.07%
- viability, T/C [13]: 9.3%
- viability, T/C [14]: 10.8%
- viability, T/C [15]: 8.66%
- viability, T/C [16]: 6.29%
- viability, T/C [17]: 5.9%
- viability, T/C [18]: 6.42%
- viability, T/C [19]: 6.98%
- viability, T/C [20]: 7.65%
- viability, T/C [21]: 0.1%
- viability, T/C [22]: 0.09%
- viability, T/C [23]: 0.08%
- viability, T/C [24]: 0.09%
- viability, T/C [25]: 0.27%
- viability, T/C [26]: 0.15%

Compound: O=C(c1cc(Cc2n[nH]c(=O)c3ccccc23)ccc1F)N1CCN(C(=O)C2CC2)CC1 + C=CC(=O)N1CCN(c2nc(=O)n(-c3c(C)ccnc3C(C)C)c3nc(-c4c(O)cccc4F)c(F)cc23)C(C)C1
- IC50 (second compound 0.1 µM): 7630 nM
- IC50 (second compound 0.316 µM): 8380 nM
- IC50 (second compound 1 µM): 6670 nM
- IC50 (second compound 3.16 µM): 1020 nM
- IC50 (second compound 10 µM): < 31.6 nM
- viability, T/C [4]: 97.8%
- viability, T/C [5]: 87%
- viability, T/C [6]: 88%
- viability, T/C [7]: 84.1%
- viability, T/C [8]: 76.8%
- viability, T/C (second compound 0.1 µM, first compound 10 µM): 41.9%
- viability, T/C [10]: 90.8%
- viability, T/C [11]: 82.1%
- viability, T/C [12]: 79.4%
- viability, T/C [13]: 85.9%
- viability, T/C [14]: 75.7%
- viability, T/C (second compound 0.316 µM, first compound 10 µM): 45.1%
- viability, T/C [16]: 77%
- viability, T/C [17]: 72.3%
- viability, T/C [18]: 76.2%
- viability, T/C [19]: 84.2%
- viability, T/C [20]: 62.1%
- viability, T/C (second compound 1 µM, first compound 10 µM): 41%
- viability, T/C [22]: 64%
- viability, T/C [23]: 59.5%
- viability, T/C [24]: 56.7%
- viability, T/C [25]: 47.5%
- viability, T/C [26]: 46.7%
- viability, T/C (second compound 3.16 µM, first compound 10 µM): 38.2%
- viability, T/C (second compound 10 µM, first compound 0.0316 µM): 27.3%
- viability, T/C (second compound 10 µM, first compound 0.1 µM): 25.9%
- viability, T/C (second compound 10 µM, first compound 0.316 µM): 28.2%
- viability, T/C (second compound 10 µM, first compound 1 µM): 28.9%
- viability, T/C (second compound 10 µM, first compound 3.16 µM): 32%
- viability, T/C (second compound 10 µM, first compound 10 µM): 29.1%

Compound: CC(=O)Nc1cccc(-n2c(=O)n(C3CC3)c(=O)c3c(Nc4ccc(I)cc4F)n(C)c(=O)c(C)c32)c1 + C=CC(=O)N1CCN(c2nc(OCC3CCCN3C)nc3c2CCN(c2cccc4cccc(C)c24)C3)CC1CC#N
- IC50 (second compound 0.0316 µM): 0.281 nM
- IC50 (second compound 0.1 µM): 0.238 nM
- IC50 (second compound 0.316 µM): 0.145 nM
- IC50 (second compound 1 µM): < 0.1 nM
- IC50 (second compound 3.16 µM): < 0.1 nM
- viability, T/C (second compound 0.0316 µM, first compound 0.0001 µM): 78.2%
- viability, T/C (second compound 0.0316 µM, first compound 0.000316 µM): 46.6%
- viability, T/C (second compound 0.0316 µM, first compound 0.001 µM): 27.2%
- viability, T/C (second compound 0.0316 µM, first compound 0.00316 µM): 18.6%
- viability, T/C [1]: 11.9%
- viability, T/C [2]: 8.52%
- viability, T/C (second compound 0.1 µM, first compound 0.0001 µM): 63.3%
- viability, T/C (second compound 0.1 µM, first compound 0.000316 µM): 45.9%
- viability, T/C (second compound 0.1 µM, first compound 0.001 µM): 29.1%
- viability, T/C (second compound 0.1 µM, first compound 0.00316 µM): 17.6%
- viability, T/C [3]: 12.4%
- viability, T/C [4]: 7.9%
- viability, T/C (second compound 0.316 µM, first compound 0.0001 µM): 56.5%
- viability, T/C (second compound 0.316 µM, first compound 0.000316 µM): 36.5%
- viability, T/C (second compound 0.316 µM, first compound 0.001 µM): 23%
- viability, T/C (second compound 0.316 µM, first compound 0.00316 µM): 13.5%
- viability, T/C [9]: 10.3%
- viability, T/C [10]: 7.06%
- viability, T/C (second compound 1 µM, first compound 0.0001 µM): 42.7%
- viability, T/C (second compound 1 µM, first compound 0.000316 µM): 21.9%
- viability, T/C (second compound 1 µM, first compound 0.001 µM): 13.3%
- viability, T/C (second compound 1 µM, first compound 0.00316 µM): 9.17%
- viability, T/C [15]: 6.87%
- viability, T/C [16]: 5.25%
- viability, T/C (second compound 3.16 µM, first compound 0.0001 µM): 0.18%
- viability, T/C (second compound 3.16 µM, first compound 0.000316 µM): 0.2%
- viability, T/C (second compound 3.16 µM, first compound 0.001 µM): 0.11%
- viability, T/C (second compound 3.16 µM, first compound 0.00316 µM): 0.27%
- viability, T/C [21]: 0.11%
- viability, T/C [22]: 0.17%

Reference: PubChem BioAssay AID1963870 (Molecular Pharmacology Branch, DTP, NCI, 2024)
